Values quoted from earlier work, collected in patent US20230106731A1, “INHIBITORS OF MUTANT FAMILY TYROSINE-KINASES” (Spectrum Pharmaceuticals, Inc., priority 2017, published 2023).

Columns and labels:
EGFR/HER2 exon 20 mutant = EGFR/HER2 exon 20 mutant patients
[1] = tested on: EGFR exon 20 driven NSCLC

SMILES | activity in patients (EGFR/HER2 exon 20 mutant) | activity in patient derived xenograft model [1]
CS(=O)(=O)CCNCc1ccc(-c2ccc3ncnc(Nc4ccc(OCc5cccc(F)c5)c(Cl)c4)c3c2)o1 [lapatinib] | limited activity | 
CCOc1cc2ncc(C#N)c(Nc3ccc(OCc4ccccn4)c(Cl)c3)c2cc1NC(=O)/C=C/CN(C)C [neratinib] | limited activity | 
C=CC(=O)Nc1cc(Nc2nccc(-c3cn(C)c4ccccc34)n2)c(OC)cc1N(C)CCN(C)C [osimertinib] |  | minimal activity
